Here are results for 4 compounds from US20070155771A1, “Methods and means for treating protein conformational disorders” (priority 2003, published 2007).

In data set [1] the test system is human wild-type, A30P and A53T α-synuclein. Nature of the data set: α-Synuclein degradation in inducible PC12 cell lines (western blot), all forms. The data set is classed as cell-based. To be noted: for α-synuclein levels: induced 24 hours, doxycycline removed, drug 48 hours, cycling and differentiated cells, 0.2 mg/ml rapamycin, 10 mM lactacystin, 10 mM epoxomicin [sic]. The text has this: (§1) Human α-synuclein with a HA tag at the N-terminus and a 6His tag at the C-terminus was amplified from pHM6α-synuclein constructs (Furlong, R. A. et a; 1 (2000) Biochem. J. 346, 577581) and inserted into pTRE2 hyg vector (Clontech) using Nhe I/Sal I sites. Constructs were confirmed by sequencing before use. The pTRE2 hygα-synuclein construct and pTettTS (Clontech) were cotransfected into PC12 TetOn cells (Clontech), using Lipofectamine (Invitrogen) and Plus Reagent (Invitrogen). Single colonies were isolated using cloning cylinders (Sigma) and cells were grown and tested for α-synuclein expression upon induction. Cell lines were subjected to a further round of purification from single colonies to ensure that lines were pure.
(§2) PC12 cells were grown in Dulbecco's modified eagle's medium (DMEM, Sigma) supplemented with 10% horse serum (Sigma), 5% fetal bovine serum (Sigma), 100 U/ml penicillin/streptomycin, 2 mM L-glutamine, […] G418 (Invitrogen) and […] hygromycin B (Calbiochem) at 37° C., 10% CO2. To induce differentiation, cells were grown in media containing 1% horse serum and 100 ng/ml nerve growth factor (2.5S, Upstate Biotechnology) and incubated for about 5 days. Cells were induced to express synuclein with […] doxycycline (Sigma).
(§3) Cells were induced for 24 hours and then washed twice with media to remove doxycycline. Then cells were incubated in […] media containing either 10 mM 3-methyladenine (3MA, Sigma), 200 nM bafilomycin A1 (Sigma), […] rapamycin (Sigma), […] lactacystin (Sigma), […] epoxomicin (Affinity Research Products Ltd) or carrier controls (water or DMSO (Sigma)). 3MA and lactacystin were made up in water and rapamycin, epoxomicin and bafilomycin were dissolved in DMSO.
(§4) After 24 hours the media was replaced with fresh media plus drug and after a further 24 hours cell pellets were collected and stored at −80° C. until required.
Cell pellets were collected and stored at −80° C. until needed. Cells were lysed on ice in lysis buffer: 1% TritonX100, 20 mM TRIS pH7.5, 137 mM NaCl, 1 mM EGTA, 10% glycerol, 1.5 mM MgCl2 and protease inhibitor cocktail (Complete, Roche).
Samples were then mixed with loading buffer: 62.5 mM TRIS pH 6.8, 2% SDS, 10% glycerol, 0.05% bromophenol blue, 100 mM dithiothreitol and 700 mM β-mercaptoethanol and boiled before loading onto 14% denaturing polyacrylamide gels.
Each lane was loaded with protein from a similar number of cells, based on cell counting at the time of seeding. Proteins were transferred onto Hybond ECL nitrocellulose membrane (Amersham). α-Synuclein was detected with an antiHA monoclonal antibody (Covance) at 1:1000 dilution with 4-18 hours incubation. HRP conjugated antimouse antibody (Amersham) at 1:2000 dilution was then added to blots and antibody was detected using ECL blotting reagents (Amersham) and Hyperfilm ECL (Amersham). Blots were stripped and then reprobed for α-tubulin (Sigma) at 1:1000 dilution.
PC12 cell lines as described above (i.e. mitotic and neuronally differentiated wild-type, A53T and A30P PC12 lines) were induced for 24 hours, then doxycycline was removed and the drugs were added for 48 hours. The trends we observed were similar in cells treated with drugs for 24 and 72 hours.
On the technique in general: A western blot detects proteins with antibodies after separation by electrophoresis.

Data set [2] relates to human wild-type α-synuclein. Nature of the data set: α-Synuclein degradation in inducible PC12 cell lines (western blot), wildtype. The data set is classed as cell-based, rat. Particulars: 10 mM 3MA, 200 nM bafilomycin A1; for α-synuclein levels, mitotic wildtype lines: 48 hours; for fold increase in α-synuclein levels (densitometry as a function of tubulin) vs control cells, wildtype: +/− SE, did not reach significance.
Source text: as §1, §2, §3, §4
(§5) Cell pellets were collected and stored at −80° C. until needed. Cells were lysed on ice in lysis buffer: 1% TritonX100, 20 mM TRIS pH7.5, 137 mM NaCl, 1 mM EGTA, 10% glycerol, 1.5 mM MgCl2 and protease inhibitor cocktail (Complete, Roche). […]
(§6) Each lane was loaded with protein from a similar number of cells, based on cell counting at the time of seeding. Proteins were transferred onto Hybond ECL nitrocellulose membrane (Amersham). α-Synuclein was detected with an antiHA monoclonal antibody (Covance) at 1:1000 dilution with 4-18 hours incubation. HRP conjugated antimouse antibody (Amersham) at 1:2000 dilution was then added to blots and antibody was detected using ECL blotting reagents (Amersham) and Hyperfilm ECL (Amersham). […]

In a further data set the test system is human A53T α-synuclein. The data set can be described thus: α-Synuclein degradation in inducible PC12 cell lines (western blot), A53T. The data set is classed as cell-based, rat. Particulars: 10 mM 3MA, 200 nM bafilomycin A1; 48 hours.
Source text: as §1, with “pure. […]” for “pure.”
as §6

A further data set concerns human A30P α-synuclein. Nature of the data set: α-Synuclein degradation in inducible PC12 cell lines (western blot), A30P. To be noted: 10 mM 3MA, 200 nM bafilomycin A1; for α-synuclein levels, mitotic A30P lines: 48 hours; for fold increase in α-synuclein levels (densitometry as a function of tubulin) vs control cells, A30P: +/− SE, significant. The data set is classed as cell-based, rat.
Source text: as §1, §2, §3, §4, §5, §6

Data set [3] concerns COS-7 cells expressing an exon 1 fragment of the HD gene with 74 glutamines (Q74). Nature of the data set: Aggregate formation and abnormal cell nuclei in transiently transfected COS-7 cells expressing Q74. Particulars: 24 hours post transfection; 0.2 μg/ml rapamycin. The class given is cell-based, African green monkey.
For data set [4] the following is noted: cited from earlier work.
Data set [5] deals with mTOR-dependent TOP-translation. The data set can be described thus: TOP-luciferase reporter assay in PC12 cells stably expressing Q23 or Q74. The class given is cell-based, rat. On the procedure:
PC12 cells stably expressing Q23 or Q74 were transfected with a luciferase construct having a 5′ untranslated region from the eEF2 gene containing a terminal oligopyrimidine tract (TOP-luciferase) or without the TOP sequence (Control-luciferase) along with β-galactosidase (to control transfection efficiency). Transfected cells were maintained in serum free medium with doxycycline for 36 hours following which the cells were stimulated with 15% serum with or without rapamycin for 3 h. Cells were then lysed and luciferase assays were performed according to standard protocol. COS-7 cells were co-transfected with Q23 or Q74 with control- or TOP-luciferase along with β-gal and experiments were performed as above. […] Experiments were performed in sextuplicate and repeated several times.
Phosphorylation of the ribosomal protein S6 by S6K1 positively regulates the translation initiation of mRNAs containing 5′-terminal oligopyrimidine tracts (5′-TOP), like mRNAs coding for ribosomal proteins and translation elongation factors. A previously validated luciferase reporter assay was used to measure mTOR-dependent TOP-translation (Kim, J. E. & Chen, J. Proc Natl Acad Sci USA 97, 14340-14345 (2000), Schwab, M. S. et al. Mol Cell Biol 19, 2485-2494 (1999)). Rapamycin is a specific inhibitor of mTOR. Comparison of cells for TOP-dependent translation with this assay in the presence or absence of rapamycin allows assessment of the amount of functional cellular mTOR that can be inhibited by rapamycin. In FIG. 10C, each bar represents the difference between the luciferase activities (corrected for transfection efficiency-see methods) in the presence vs. the absence of rapamycin, for a luciferase reporter with a TOP sequence (+TOP) (FIG. 10A) and otherwise identical control construct without the TOP sequence (−TOP) (FIG. 10B).

For the compound `CC[C@H](C)[C@H](NC(=O)[C@H]([C@@H](C)CC)N(C)C(C)=O)C(=O)N[C@H](C(=O)N[C@@H](CC(C)C)C(=O)[C@@]1(C)CO1)[C@@H](C)O` [epoxomicin], in data set [1], the α-synuclein levels entry is “increase”. The “cell death or overt aggregate formation” value in data set [1] (proteasome inhibitors for 48 hours) was “did not cause increased cell death or overt aggregate formation”.

Turning to `Cn1cnc(N)c2ncnc1-2` [3-MA, 3-methyl adenine], in data set [2], the “α-synuclein levels, mitotic wildtype lines” value is “slight changes, at best” and the “fold increase in α-synuclein levels (densitometry as a function of tubulin) vs control cells, wildtype” value worked out at 1.48 fold. Also, in the data set on human A53T α-synuclein, the “α-synuclein levels in the A53T lines” value was “obvious increase”. Further, in the data set on human A30P α-synuclein, the “α-synuclein levels, mitotic A30P lines” value is on record as “slight changes, at best” and the “fold increase in α-synuclein levels (densitometry as a function of tubulin) vs control cells, A30P” value turned out to be 1.13 fold.

Regarding rapamycin, the “cell death in Q74-expressing cells” value in data set [3] is listed as “reduced”. Also, the “proportions of cells with Q74 aggregates” value in data set [3] is given as “reduced”. Moreover, in data set [1], the α-synuclein levels entry is recorded as “significantly reduce”. Moreover, the water solubility result in data set [4] was “poor”. Moreover, the “inhibition of TOP-dependent (+TOP) expression of luciferase” value is recorded as “about 18%” in data set [5] (Q23-expressing PC12 cells, after serum stimulation, 3 h) and “no such inhibitory effect” in data set [5] (Q74-expressing PC12 cells). In addition, in data set [5] (Q23 cells), the “luciferase activity, control-luciferase construct without the TOP sequence (−TOP)” value is reported as “no inhibitory effect”.

`CO/C1=C\C(C)=C\[C@@H](C)[C@@H](O)[C@@H](C)C/C(C)=C/C=C/[C@H](OC)[C@@H]([C@@H](C)[C@@H](O)[C@H](C)[C@@]2(O)C[C@@H](O)[C@H](C)[C@@H](C(C)C)O2)OC1=O` [BafA1, Bafilomycin A1]: in data set [2], the “α-synuclein levels, mitotic wildtype lines” value was “slight changes, at best” and the “fold increase in α-synuclein levels (densitometry as a function of tubulin) vs control cells, wildtype” value stood at 1.12 fold. The “α-synuclein levels in the A53T lines” value in the data set on human A53T α-synuclein was “obvious increase”. In the data set with human A30P α-synuclein, the “α-synuclein levels, mitotic A30P lines” value is on record as “slight changes, at best” and the “fold increase in α-synuclein levels (densitometry as a function of tubulin) vs control cells, A30P” value turned out to be 1.19 fold.
